US20090257979A1, “Novel Inhibitors of Hepatitis C Virus Replication” (INTERMUNE, INC., priority 2008, published 2009)

Tests used:
[1] = test system: HCV Replicon; experiment: HCV Replicon inhibition; assay type: cell-based; conditions: Hepatitis C virus
[2] = target: T1, NS5B polymerase protein (Hepatitis C virus genotype 1a, UniProt P27958); experiment: biochemical; conditions: pre-incubated 37° C. 30 minutes; RdRp reaction 90 minutes at 37° C.; read-out: HCV NS5B inhibition EC50
T1 construct: pre-incubated with the RNA template and NS5B polymerase protein; Replizyme
T1 sequence (P27958 2421-3011): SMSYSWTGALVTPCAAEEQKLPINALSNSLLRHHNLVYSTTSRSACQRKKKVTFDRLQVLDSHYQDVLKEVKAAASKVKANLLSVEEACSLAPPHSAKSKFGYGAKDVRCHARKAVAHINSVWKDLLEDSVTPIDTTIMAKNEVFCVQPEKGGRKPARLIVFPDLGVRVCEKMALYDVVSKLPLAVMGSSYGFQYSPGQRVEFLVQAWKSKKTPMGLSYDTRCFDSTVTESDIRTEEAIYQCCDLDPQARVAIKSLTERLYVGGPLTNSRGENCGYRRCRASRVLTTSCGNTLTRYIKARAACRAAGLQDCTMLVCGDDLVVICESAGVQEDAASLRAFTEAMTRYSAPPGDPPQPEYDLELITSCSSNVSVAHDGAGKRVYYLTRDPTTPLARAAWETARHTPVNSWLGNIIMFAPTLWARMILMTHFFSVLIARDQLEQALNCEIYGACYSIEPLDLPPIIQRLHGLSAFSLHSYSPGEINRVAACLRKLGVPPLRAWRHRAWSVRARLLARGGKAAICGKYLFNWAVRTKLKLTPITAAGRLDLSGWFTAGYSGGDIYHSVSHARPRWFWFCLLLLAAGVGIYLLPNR
Experimental: The compounds were tested in the Replizyme HCV heterotemplate radioactive RNA-dependent RNA-polymerase (RdRp) assay. The test compounds were pre-incubated with the RNA template and NS5B polymerase protein at 37° C. for 30 minutes. The RdRp reaction was initiated with the addition of the NTPs to the buffer-NS5B-compound mix, and was allowed to proceed for 90 minutes at 37° C. Control reactions included: no enzyme, 5% DMSO (test compound solvent), no compound/solvent, Cordycepin-TP and HCV-796 (IC50 values used as a reference inhibition). Radioactive products were collected by applying the stopped reaction to DE-81 paper, air dried prior to washing with buffer comprising NaH2PO4 and sodium pyrophosphate to remove unincorporated ^32P-GTP in the NTP mix, and rinsed with dH2O followed by 100% ethanol. The DE-81 paper was air dried, squares cut out and placed in scintillation tubes for counting.

SMILES | EC50 [1] [µM] | EC50 [2] [µM]
CS(=O)(=O)Nc1ccc2c(c1)S(=O)(=O)N=C(c1c(O)n3nccc3n(Cc3ccc(F)cc3)c1=O)N2 [Compound 231, N-{3-[4-(4-Fluoro-benzyl)-7-hydroxy-5-oxo-4,5-dihydro-pyrazolo[1,5-a]pyrimidin-6-yl]-1,1-dioxo-1,4-dihydro-1lambda*6*-benzo[1,2,4]thiadiazin-7-yl}-methanesulfonamide] | < 0.1 | 10 to 50
CC(C)CCC1(C)C(=O)C(C2=Nc3ccccc3S(=O)(=O)N2)=C(O)c2cccn21 (stereo not shown) [Compound 213] | 10 to 50 | < 0.1
CS(=O)(=O)Nc1ccc2c(c1)S(=O)(=O)N=C(c1cccc(C(F)(F)F)c1)N2 [Compound 224] | < 0.1 | 10 to 50
CS(=O)(=O)Nc1ccc2c(c1)S(=O)(=O)N=C(c1c(O)n3ccccc3c(CCC3CC3)c1=O)N2 [Compound 253] | 0.1 to 1 | 1 to 10
CC(C)CCn1cc(C2=NS(=O)(=O)c3cc(NS(C)(=O)=O)ccc3N2)c2cccc(Cl)c21 [Compound 208] | > 50 | 0.1 to 1
